These results are taken from PubChem BioAssay AID248 (DTP/NCI, 2004).

“And” between values parts separate entries of the source, which are not always exact repeats. Equal entries are not always repeated. Inconclusive results and toxic doses are left out.

This assay has as its system L1210 leukemia ip in BDF1 mice, survival T/C. Kind of assay: NCI In Vivo Anticancer Drug Screen. Data for tumor model L1210 Leukemia (intraperitoneal) in B6D2F1 (BDF1) mice. The settings on record: endpoint: mean survival time, higher = longer survival. An outline of the steps:
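Each compound was tested against a transplantable tumor grown in mice. The endpoint was survival, with treated animals benchmarked against vehicle controls as a simple ratio.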

[1] abbreviates: dose: 100.0 mg/kg/injection, schedule: Q04DX002 (ip), vehicle: saline with Tween-80.
Setting [2] is: dose: 200.0 mg/kg/injection, schedule: Q04DX002 (ip), vehicle: saline with Tween-80.
[3] abbreviates: dose: 400.0 mg/kg/injection, schedule: Q04DX003 (ip), vehicle: saline with Tween-80.
The mark [4] stands for this setting: dose: 100.0 mg/kg/injection, schedule: Q01DX001 (ip), vehicle: saline.
The mark [5] stands for this setting: dose: 200.0 mg/kg/injection, schedule: Q01DX001 (ip), vehicle: saline.
[6] abbreviates: dose: 400.0 mg/kg/injection, schedule: Q01DX001 (ip), vehicle: saline.
The mark [7] stands for this setting: dose: 100.0 mg/kg/injection, schedule: Q04DX003 (ip), vehicle: saline with Tween-80.
Setting [8] is: dose: 200.0 mg/kg/injection, schedule: Q04DX003 (ip), vehicle: saline with Tween-80.
[9] abbreviates: dose: 100.0 mg/kg/injection, schedule: Q01DX009 (ip), vehicle: Klucel (hydroxypropylcellulose) (HPC).
Setting [10] is: dose: 100.0 mg/kg/injection, schedule: Q04DX003 (ip), vehicle: Klucel (hydroxypropylcellulose) (HPC).
[11] abbreviates: dose: 200.0 mg/kg/injection, schedule: Q01DX009 (ip), vehicle: Klucel (hydroxypropylcellulose) (HPC).
Where [12] appears, read: dose: 200.0 mg/kg/injection, schedule: Q04DX003 (ip), vehicle: Klucel (hydroxypropylcellulose) (HPC).
The mark [13] stands for this setting: dose: 400.0 mg/kg/injection, schedule: Q01DX009 (ip), vehicle: Klucel (hydroxypropylcellulose) (HPC).
[14] abbreviates: dose: 400.0 mg/kg/injection, schedule: Q04DX003 (ip), vehicle: Klucel (hydroxypropylcellulose) (HPC).

Regarding `COc1cc(\C=N/N=C/C=C/c2ccccc2)cc(OC)c1OC`, the T/C (dose: 50.0 mg/kg/injection, schedule: Q04DX003 (ip), vehicle: saline with Tween-80) was 95 % of control; the T/C under setting [1] is 87 % of control and 90 % of control; the T/C under setting [2] was 104 % of control and 113 % of control; the T/C (dose: 400.0 mg/kg/injection, schedule: Q04DX002 (ip), vehicle: saline with Tween-80) was 102 % of control and 103 % of control; the T/C under setting [3] is 93 % of control and 88 % of control.

With `CC(OC1OC(CO)C(OC2OC(CO)C(O)C(O)C2O)C(O)C1O)C1CC(O)C2C3CCC4=CC(=O)CCC4(C)C3CCC12C` (stereo not drawn), the T/C was 104 % of control (dose: 25.0 mg/kg/injection, schedule: Q04DX002 (ip), vehicle: saline); 107 % of control (dose: 50.0 mg/kg/injection, schedule: Q04DX002 (ip), vehicle: saline); 96 % of control (dose: 100.0 mg/kg/injection, schedule: Q04DX002 (ip), vehicle: saline).

As for `O=C(C(=O)c1ccc(O)cc1O)c1ccc(O)cc1O`, the T/C reads like this: under setting [4], 97 % of control; under setting [5], 97 % of control; under setting [6], 97 % of control.

Consider `CC1=NNC(=O)C1(Cl)c1ccc(N)cc1` (stereo not drawn), for which the T/C was 102 % of control under setting [4], 100 % of control under setting [5] and 100 % of control under setting [6].

With `CCCCNCC1COc2cccc(OCC)c2O1` (stereo not drawn), the T/C was 107 % of control (dose: 6.25 mg/kg/injection, schedule: Q01DX009 (ip), vehicle: saline); 105 % of control (dose: 12.5 mg/kg/injection, schedule: Q01DX009 (ip), vehicle: saline); 106 % of control (dose: 12.5 mg/kg/injection, schedule: Q04DX003 (ip), vehicle: saline); 108 % of control (dose: 25.0 mg/kg/injection, schedule: Q01DX009 (ip), vehicle: saline); 95 % of control (dose: 25.0 mg/kg/injection, schedule: Q04DX003 (ip), vehicle: saline); 113 % of control (dose: 50.0 mg/kg/injection, schedule: Q01DX009 (ip), vehicle: saline). Also, the T/C by setting is: (dose: 50.0 mg/kg/injection, schedule: Q04DX003 (ip), vehicle: saline) 108 % of control; under setting [4], 103 % of control; (dose: 100.0 mg/kg/injection, schedule: Q04DX003 (ip), vehicle: saline) 95 % of control.

As to `CCOC(=O)C(C=O)C(C(=O)OCC)C(OCC)OCC` (stereo not drawn), the T/C under setting [7] is 111 % of control, the T/C under setting [8] was 104 % of control and the T/C under setting [3] is 109 % of control.

With `CCOC(=O)[CH2][Sn]([Br])([Br])[CH2]C(=O)OCC`, the T/C runs as follows: under setting [1], 94 % of control; under setting [2], 89 % of control.

In the case of `O=S(=O)(CBr)C1C2C=CC(C2)C1c1ccccc1` (stereo not drawn), the T/C is, setting by setting: (dose: 100.0 mg/kg/injection, schedule: Q04DX002 (ip), vehicle: Klucel (hydroxypropylcellulose) (HPC)) 106 % of control; (dose: 200.0 mg/kg/injection, schedule: Q04DX002 (ip), vehicle: Klucel (hydroxypropylcellulose) (HPC)) 106 % of control; (dose: 400.0 mg/kg/injection, schedule: Q04DX002 (ip), vehicle: Klucel (hydroxypropylcellulose) (HPC)) 97 % of control.

For the molecule `O=C(Nc1ccc2c(c1)OCO2)O/N=C\c1ccccn1`, the T/C was 103 % of control (dose: 50.0 mg/kg/injection, schedule: Q01DX009 (ip), vehicle: saline with Tween-80); 86 % of control and 92 % of control (dose: 100.0 mg/kg/injection, schedule: Q01DX009 (ip), vehicle: saline with Tween-80); 100 % of control under setting [7]; 86 % of control and 92 % of control (dose: 200.0 mg/kg/injection, schedule: Q01DX009 (ip), vehicle: saline with Tween-80); 101 % of control under setting [8]; 91 % of control (dose: 400.0 mg/kg/injection, schedule: Q01DX009 (ip), vehicle: saline with Tween-80). Moreover, the T/C under setting [3] is 95 % of control.

As to `CCN=C(N)Nc1ccc(NC(=O)c2ccc(C(=O)Nc3ccc(NC(N)=NCC)cc3)cc2)cc1`, the T/C (dose: 0.12 mg/kg/injection, schedule: Q01DX Z (ip), vehicle: carboxymethylcellulose (CMC)) is 101 % of control; the T/C (dose: 0.25 mg/kg/injection, schedule: Q01DX Z (ip), vehicle: carboxymethylcellulose (CMC)) was 105 % of control; the T/C (dose: 1.0 mg/kg/injection, schedule: Q01DX Z (ip), vehicle: carboxymethylcellulose (CMC)) was 154 % of control; the T/C (dose: 2.0 mg/kg/injection, schedule: Q01DX Z (ip), vehicle: carboxymethylcellulose (CMC)) is 227 % of control; the T/C (dose: 3.0 mg/kg/injection, schedule: Q01DX Z (ip), vehicle: carboxymethylcellulose (CMC)) is 261 % of control; the T/C (dose: 4.0 mg/kg/injection, schedule: Q01DX Z (ip), vehicle: carboxymethylcellulose (CMC)) was 264 % of control. Further, the T/C is, setting by setting: (dose: 6.0 mg/kg/injection, schedule: Q01DX Z (ip), vehicle: carboxymethylcellulose (CMC)) 198 % of control; (dose: 8.0 mg/kg/injection, schedule: Q01DX Z (ip), vehicle: carboxymethylcellulose (CMC)) 155 % of control; (dose: 11.0 mg/kg/injection, schedule: Q01DX001 (ip), vehicle: carboxymethylcellulose (CMC)) 122 % of control; (dose: 11.0 mg/kg/injection, schedule: Q01DX001 (ip), vehicle: other) 122 % of control; (dose: 16.0 mg/kg/injection, schedule: Q01DX Z (ip), vehicle: carboxymethylcellulose (CMC)) 121 % of control; (dose: 21.0 mg/kg/injection, schedule: Q01DX001 (ip), vehicle: carboxymethylcellulose (CMC)) 151 % of control. In addition, the T/C runs as follows: (dose: 21.0 mg/kg/injection, schedule: Q01DX001 (ip), vehicle: other) 155 % of control; (dose: 32.0 mg/kg/injection, schedule: Q01DX001 (ip), vehicle: carboxymethylcellulose (CMC)) 163 % of control; (dose: 32.0 mg/kg/injection, schedule: Q01DX001 (ip), vehicle: other) 164 % of control; (dose: 32.0 mg/kg/injection, schedule: Q01DX Z (ip), vehicle: carboxymethylcellulose (CMC)) 91 % of control; (dose: 48.0 mg/kg/injection, schedule: Q01DX001 (ip), vehicle: carboxymethylcellulose (CMC)) 209 % of control; (dose: 48.0 mg/kg/injection, schedule: Q01DX001 (ip), vehicle: other) 204 % of control. The T/C was 118 % of control (dose: 50.0 mg/kg/injection, schedule: Q01DX Z (oral), vehicle: carboxymethylcellulose (CMC)); 104 % of control (dose: 100.0 mg/kg/injection, schedule: Q01DX Z (oral), vehicle: carboxymethylcellulose (CMC)); 96 % of control (dose: 200.0 mg/kg/injection, schedule: Q01DX Z (oral), vehicle: carboxymethylcellulose (CMC)); 118 % of control (dose: 400.0 mg/kg/injection, schedule: Q01DX Z (oral), vehicle: carboxymethylcellulose (CMC)).

On to `N=c1ccn(CC(Cl)COc2ccccc2)cc1` (stereo not drawn), for which the T/C reads like this: (dose: 5.0 mg/kg/injection, schedule: Q01DX001 (ip), vehicle: saline) 103 % of control; (dose: 10.0 mg/kg/injection, schedule: Q01DX001 (ip), vehicle: saline) 105 % of control; (dose: 20.0 mg/kg/injection, schedule: Q01DX001 (ip), vehicle: saline) 105 % of control; (dose: 40.0 mg/kg/injection, schedule: Q01DX001 (ip), vehicle: saline) 100 % of control; (dose: 80.0 mg/kg/injection, schedule: Q01DX001 (ip), vehicle: saline) 105 % of control; under setting [4], 101 % of control.

`CCCCCCOC(=O)CCC(=O)OCCCCCC`: the T/C was 97 % of control under setting [9]; 92 % of control under setting [10]; 101 % of control under setting [11]; 92 % of control under setting [12]; 97 % of control under setting [13]; 97 % of control under setting [14].

As for `Cc1cc2c(cc1C)NC(=O)C(C)CN2` (stereo not drawn), the T/C was 103 % of control under setting [9]; 98 % of control under setting [10]; 108 % of control under setting [11]; 103 % of control under setting [12]; 95 % of control under setting [13]; 101 % of control under setting [14].
